The values that follow are results of earlier work, collected in patent US20080241273A1, “MASTIC GUM COMPOSITION FOR USE AS A DIETARY SUPPLEMENT IN HUMANS AND ANIMALS” (INTACT ENTERPRISES, INC., priority 2005, published 2008).

The conditions of data set [1]: dogs.
For data set [2] the following is noted: infusion, patients with lowered ionized magnesium.
The conditions of data set [3]: 6 mg/kg daily orally for up to 60 days.
The conditions of data set [4]: hydrochloric acid titrated to a pH between 6 and 7.
For data set [5] the following is noted: healthy individuals, oral.
The conditions of data set [6]: oral, six weeks, daily dose of 15 mmol.
For data set [7] the following is noted: type 1 and type 2 diabetes.

Take `C[C@H](O)C(=O)[O-].C[C@H](O)C(=O)[O-].O.O.[Mg+2]` [magnesium L-lactate dihydrate]: the “bioavailability under decreased acidity” value in data set [1] was “did not impair”.
Turning to `[Mg+2]` [magnesium], in data set [2], the “relief of acute migraine” value is “rapid and sustained relief”. Besides, in data set [3], the “serum concentrations of calcium, magnesium, parathyroid hormone, calcitriol, osteocalcin” value is given as “increased significantly”.
For the compound magnesium citrate, the reprecipitation entry in data set [4] is recorded as “did not occur”. Further, the “in vivo absorption (rise in urinary magnesium levels)” value in data set [5] was “absorbed to a much greater extent than the oxide”.
Take magnesium lactate citrate: in data set [6], the bioavailability result is “satisfactory”.
Consider `O=S(=O)([O-])[O-].[O]=[V+2]` [vanadyl sulfate], for which, in data set [7], the blood sugar result is given as “reduced” and the insulin sensitivity entry is listed as “improved”.
Consider `[O]=[Mg]` [magnesium oxide], for which the reprecipitation result in data set [4] is on record as “did not occur”.
